# Article PMC8258697 (The Journal of Biological Chemistry, 2021)
# Positions count from the first letter of the chain named. Where “and” joins values, the source holds several entries; their conditions need not be identical. Identical values can stand only once.
# T1: PPARγ LBD in complex with RXRα LBD (Homo sapiens, UniProt P37231)
# T1 construct: His10-tag with TEV site (N, cleaved yes); made in house; host or cells: E. coli T7 express (co-expressed with GroEL/ES)
# T1 sequence (P37231 234-505): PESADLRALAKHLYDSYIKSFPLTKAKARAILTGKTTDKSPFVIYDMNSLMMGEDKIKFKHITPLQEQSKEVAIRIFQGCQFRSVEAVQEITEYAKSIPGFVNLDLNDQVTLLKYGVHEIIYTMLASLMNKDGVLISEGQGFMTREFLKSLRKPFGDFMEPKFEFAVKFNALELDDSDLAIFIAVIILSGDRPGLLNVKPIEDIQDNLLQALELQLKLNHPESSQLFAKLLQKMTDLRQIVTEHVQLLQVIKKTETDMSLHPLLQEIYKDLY
# T1 sequence (P19793 226-462 V280T/K284E/V298T/F450Y/E453R partner limits assumed): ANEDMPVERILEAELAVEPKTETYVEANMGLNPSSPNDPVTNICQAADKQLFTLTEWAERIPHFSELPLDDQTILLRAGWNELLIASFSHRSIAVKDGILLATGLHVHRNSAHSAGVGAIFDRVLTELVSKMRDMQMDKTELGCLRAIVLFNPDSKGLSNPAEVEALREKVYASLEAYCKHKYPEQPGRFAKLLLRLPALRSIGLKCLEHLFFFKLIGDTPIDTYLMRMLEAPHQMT
# T2: PPARγ:RXRα heterodimer (Homo sapiens, UniProt P19793+P37231)
# T2 construct: His10-tag with TEV site (N, cleaved yes); made in house; host or cells: E. coli T7 express (co-expressed with GroEL/ES)
# T2 sequence (P37231 234-505): T1 sequence (P37231 234-505)
# T2 sequence (P19793 226-462): T1 sequence (P19793 226-462 V280T/K284E/V298T/F450Y/E453R partner limits assumed) with T55V, E59K, T73V, Y225F, R228E
# T3: RXRα homodimer (Homo sapiens, UniProt P19793)
# T3 construct: His10-tag with TEV site (N, cleaved yes); made in house; host or cells: E. coli T7 express (co-expressed with GroEL/ES)
# T3 sequence (P19793 226-462) 1: T1 sequence (P19793 226-462 V280T/K284E/V298T/F450Y/E453R partner limits assumed) with T55V, E59K, T73V, Y225F, R228E
# T3 sequence (P19793 226-462) 2: T1 sequence (P19793 226-462 V280T/K284E/V298T/F450Y/E453R partner limits assumed) with T55V, E59K, T73V, Y225F, R228E
# T4: PPARγ LBD (Homo sapiens, UniProt P37231)
# T4 construct: His10-tag with TEV site (N, cleaved yes); made in house; host or cells: E. coli T7 express (co-expressed with GroEL/ES)
# T4 sequence (P37231 234-505): T1 sequence (P37231 234-505)
# T5: RXRα LBD (Homo sapiens, UniProt P19793)
# T5 construct: His10-tag with TEV site (N, cleaved yes); made in house; host or cells: E. coli T7 express (co-expressed with GroEL/ES)
# T5 sequence (P19793 226-462): T1 sequence (P19793 226-462 V280T/K284E/V298T/F450Y/E453R partner limits assumed) with T55V, E59K, T73V, Y225F, R228E
# T6: biotinylated RXRα LBD (N-terminal Avi-tag) (human, UniProt P19793-1 226-462, biotin on the Lys residue in the Avi-tag)
# T6 chain: T1 sequence (P19793 226-462 V280T/K284E/V298T/F450Y/E453R partner limits assumed) with T55V, E59K, T73V, Y225F, R228E
# T7: sGFP-PPARα LBD (human, UniProt Q07869-1 198-468)
# T7 construct: PPARα LBD, human, UniProt Q07869-1, residues 198-468; source: E. coli T7 express, coexpressed with GroEL/ES, purified (Ni IMAC, TEV, reverse IMAC, SEC); not shown: His10, N-terminal, cleaved; sGFP, N-terminal, kept
# T7 sequence (looked up): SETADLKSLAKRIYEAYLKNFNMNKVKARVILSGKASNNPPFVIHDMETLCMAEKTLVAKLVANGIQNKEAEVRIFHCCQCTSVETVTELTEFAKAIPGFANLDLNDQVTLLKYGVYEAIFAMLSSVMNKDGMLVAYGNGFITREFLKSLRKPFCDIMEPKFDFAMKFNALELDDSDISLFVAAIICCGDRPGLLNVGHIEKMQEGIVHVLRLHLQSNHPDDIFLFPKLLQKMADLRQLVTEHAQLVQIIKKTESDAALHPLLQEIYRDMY
# T8: sGFP-PPARβ/δ LBD (human, UniProt Q03181-1 170-441)
# T8 construct: PPARβ/δ LBD, human, UniProt Q03181-1, residues 170-441; also called PPARδ; source: E. coli T7 express, coexpressed with GroEL/ES, purified (Ni IMAC, TEV, reverse IMAC, SEC); not shown: His10, N-terminal, cleaved; sGFP, N-terminal, kept
# T8 sequence (looked up): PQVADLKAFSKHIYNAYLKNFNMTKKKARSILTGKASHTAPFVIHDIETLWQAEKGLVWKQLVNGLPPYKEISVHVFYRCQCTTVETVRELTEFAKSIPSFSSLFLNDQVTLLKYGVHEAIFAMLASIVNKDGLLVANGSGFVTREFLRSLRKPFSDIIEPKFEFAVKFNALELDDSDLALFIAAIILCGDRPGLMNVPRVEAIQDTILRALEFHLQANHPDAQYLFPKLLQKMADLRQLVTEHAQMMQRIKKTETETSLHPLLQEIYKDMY
# T9: biotinylated CBP-1 cofactor peptide (CREB-binding protein coactivator motif 1) (N-terminal biotin)
# T9 construct: coupled to Tb-streptavidin in the assay; also called CBP-1 peptide; CBP-derived peptide; source: bought: Eurogentec GmbH
# T9 peptide: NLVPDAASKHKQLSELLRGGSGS
# B1: PPARδ: PPARδ LBD as fusion protein with N-terminal sGFP (protein)
# chain: T8 sequence (looked up)
# modifications: left off: His10, N-terminal, cleaved | sGFP, N-terminal, kept
# B2: PPARα: PPARα LBD as fusion protein with N-terminal sGFP (protein)
# chain: T7 sequence (looked up)
# modifications: left off: His10, N-terminal, cleaved | sGFP, N-terminal, kept
# B3: sGFP-RXRα LBD wildtype (domain or fragment, human, UniProt P19793-1 226-462, looked up)
# chain: T1 sequence (P19793 226-462 V280T/K284E/V298T/F450Y/E453R partner limits assumed) with T55V, E59K, T73V, Y225F, R228E
# notes: retinoid X receptor alpha (RXRα) LBD, human, UniProt P19793-1, residues 226-462; only the fractions eluting as monomer in the second SEC were used; also called RXRα as a fusion protein with sGFP; RXRα wt; source: E. coli T7 express, coexpressed with GroEL/ES, purified (Ni IMAC, TEV, two SEC steps); not shown: His10, N-terminal, cleaved; sGFP, N-terminal, kept
# B4: biotinylated RXRα LBD (N-terminal Avi-tag) (domain or fragment, human, UniProt P19793-1 226-462, looked up)
# chain: T1 sequence (P19793 226-462 V280T/K284E/V298T/F450Y/E453R partner limits assumed) with T55V, E59K, T73V, Y225F, R228E
# modifications: biotin on the Lys residue in the Avi-tag
# notes: retinoid X receptor alpha (RXRα) LBD, human, UniProt P19793-1, residues 226-462; coupled to Tb-streptavidin in the assay; also called biotin-labeled RXRα LBD; source: E. coli T7 express, coexpressed with GroEL/ES, purified (Ni IMAC, TEV and BirA, monomeric avidin, SEC); not shown: His10, N-terminal, cleaved; Avi-tag, N-terminal, kept
# B5: sGFP-PPARγ LBD:RXRα total mutant LBD (unlabeled) heterodimer (complex, human)
# chain 1: T1 sequence (P37231 234-505)
# chain 2: TSSANEDMPVERILEAELAVEPKTETYVEANMGLNPSSPNDPVTNICQAADKQLFTLTEWAERIPHFSELPLDDQTILLRAGWNELLIASFSHRSIAVKDGILLATGLHVHRNSAHSAGVGAIFDRVLTELVSKMRDMQMDKTELGCLRAIVLFNPDSKGLSNPAEVEALREKVYASLEAYCKHKYPEQPGRFAKLLLRLPALRSIGLKCLEHLFFFKLIGDTPIDTYLMRMLEAPHQMT
# notes: PPARγ isoform 2 LBD, human, UniProt P37231-1, residues 234-505; RXRα LBD, human, residues 223-462, five AF-2 mutations; also called LBD:LBD heterodimer with RXRα; source: mixed from the purified E. coli proteins (100 nM sGFP-PPARγ LBD, RXRα total mutant LBD titrated); not shown: His10, N-terminal, cleaved; sGFP, N-terminal, kept; MBP, N-terminal, cleaved; His8, N-terminal, cleaved
# Key:
# PPARγ = settings: cited from earlier work
# [1] = biological target: T1, PPARγ LBD in complex with RXRα LBD; assay: Heterodimer coactivator recruitment HTRF assay: CBP-1 recruitment by PPARγ LBD in complex with sGFP-RXRα LBD total mutant; format: biochemical
# PPARγ:RXRα heterodimer = biological target: T2, PPARγ:RXRα heterodimer; assay: PPARγ:RXRα heterodimer formation HTRF assay, sGFP-RXRα LBD titrated against biotinylated PPARγ LBD coupled to Tb-SA; format: binding
# RXRα homodimer = biological target: T3, RXRα homodimer; assay: RXRα homodimer formation HTRF assay, sGFP-RXRα LBD titrated against biotinylated RXRα LBD (wildtype); format: binding; settings: 10 μM ligand compared with no ligand
# RXRα LBD wildtype = settings: cited from earlier work
# [2] = biological target: T1, PPARγ LBD in complex with RXRα LBD; settings: cited from earlier work
# PPARγ LBD = biological target: T4, PPARγ LBD; assay: Monomer cofactor recruitment HTRF assay: CBP-1 recruitment by isolated sGFP-PPARγ LBD; format: biochemical; settings: versus 1 μM Rosi
# RXRα LBD = biological target: T5, RXRα LBD; assay: LBD:LBD heterodimer formation HTRF assay, sGFP-PPAR LBD titrated against biotinylated RXRα LBD coupled to Tb-SA; format: binding; settings: sGFP-PPAR LBD titrated up to […]; 0.375 nM RXRα; no ligand; read-out: apparent Kd of heterodimer formation with RXRα LBD
# From the text: To probe the relative affinities of the three PPAR subtypes to RXRα, we constructed a homogeneous time-resolved FRET (HTRF)-based assay for investigation of heterodimer formation between the LBDs of the PPARs and the LBD of their obligatory dimer partner RXRα. […] The latter was utilized as the FRET donor fluorophore. The PPAR LBDs were expressed with N-terminal superfolder green fluorescent protein (sGFP) that functions as the FRET acceptor.
# By addition of free sGFP the total concentration of sGFP was kept constant throughout the entire experiment. Data are the mean ± SD; N = 4. […] Curves were fitted based on the HTRF signals before conversion to bound RXR [%] for better comparison. The lower and upper plateaus from the fits were set as 0% and 100% bound, respectively.
# The strength of LBD:LBD dimer formation and its modulation by ligands was investigated by HTRF with complex formation resulting in a gain in HTRF. […] Free sGFP was added to keep the total sGFP content stable at 0.3 or 4 μM throughout the entire series in order to suppress artifacts from changes in degree of diffusion-enhanced FRET. Assay solutions were prepared in HTRF assay buffer supplemented with 0.1% (w/v) CHAPS as well as 1% DMSO with the test compounds at indicated concentrations or DMSO alone as the negative control. Samples were equilibrated at RT for 1 h before measurements. […]
# [3] = biological target: the molecule itself; assay: SEC; size exclusion chromatography during purification; 16/600 Superdex75 (and 16/600 Superdex200 for sGFP-RXRα) in 25 mM Hepes pH 7.5, 150 mM KF, 10% glycerol, 5 mM DTT
# [4] = biological target: T6, biotinylated RXRα LBD (N-terminal …); assay: FRET
# sGFP-PPARα LBD = biological target: T7, sGFP-PPARα LBD; assay: AlphaScreen or HTRF; LBD:LBD dimer formation; biotinylated RXRα LBD (0.375 nM) coupled to Tb-SA (0.75 nM) as FRET donor; sGFP-PPAR LBD titrated up to 4.8 μM, total sGFP kept constant with free sGFP; no ligand; HTRF assay buffer with 0.1% CHAPS and 1% DMSO; 1 h at RT; apparent Kd from the inflection point; settings: both partners purified
# sGFP-PPARβ/δ LBD = biological target: T8, sGFP-PPARβ/δ LBD; assay: as above; settings: both partners purified
# [5] = biological target: T9, biotinylated CBP-1 cofactor peptide …; assay: AlphaScreen or HTRF; as a27, with SR11237 (up to 100 μM) titrated together with unlabeled RXRα total mutant LBD (up to 8 μM); referenced to isolated sGFP-PPARγ LBD activated by rosiglitazone; settings: both partners purified
molecule,measurement,setting,value
O=S(=O)(Nc1cc(Cl)c(Oc2cnc3ccccc3c2)c(Cl)c1)c1ccc(Cl)cc1Cl [INT131],degree of activation of PPARγ compared with rosiglitazone,PPARγ,30%
GW1929,change of EC50 in the heterodimer setting in comparison with monomeric PPARγ LBD,[1],about 2 fold
same,"Dimer recruitment, agonist mode, Efficacy (%)",[1]; normalized to rosiglitazone in the heterodimer,118%
same,reduction of the apparent Kd of heterodimer formation,PPARγ:RXRα heterodimer; 1 μM ligand compared with apo,3 fold
"O=C(O)Cc1cc(I)c(Oc2cc(I)c(O)c(I)c2)c(I)c1 [TETRAC, 3,3',5,5'-tetraiodothyroacetic acid]",effect on RXRα homodimer formation,RXRα homodimer,slightly but significantly weakened
same,activation of RXRα in comparison with 1 μM SR11237,RXRα LBD wildtype,below 10%
same,EC50,RXRα LBD wildtype; read-out: EC50 of activation of RXRα,~10000 nM
same,enhancement of CBP-1 recruitment in comparison with 1 μM rosiglitazone,[2],approximately 50%
same,effect on PPARγ:RXRα heterodimer formation,PPARγ:RXRα heterodimer; 10 μM ligand compared with no ligand,strongly reduced the apparent Kd
same,reduction in the apparent Kd of dimer formation,PPARγ:RXRα heterodimer; 10 μM ligand in comparison with dimethyl sulfoxide control,4 fold
O=C(O)c1c(Sc2ccccc2)c2cc(Cl)ccc2n1Cc1ccccc1 [SR145],degree of activation of PPARγ compared with rosiglitazone,PPARγ,~ 35%
O=C(Nc1ccccc1)c1cc([N+](=O)[O-])ccc1Cl [GW9662],"Dimer recruitment, antagonist mode, Max inhibition (%)",[1]; versus 1 μM Rosi,52%
same,"Monomer recruitment, antagonist mode, Max inhibition (%)",PPARγ LBD,62%
same,IC50,"PPARγ LBD; read-out: Monomer recruitment, antagonist mode, Potency (IC50)",1200 ± 70 nM
same,effect on PPARγ:RXRα heterodimer formation,PPARγ:RXRα heterodimer; 1 μM ligand compared with apo,did not affect heterodimer formation
B1,Kd,RXRα LBD,363 nM
B2,Kd,RXRα LBD,72 nM
B3,stoichiometry N,[3],2
same,Kd,[4],50 nM and 28 nM
B4,Kd,sGFP-PPARα LBD,72 nM
same,Kd,sGFP-PPARβ/δ LBD,363 nM
B5,CBP-1 recruitment relative to full activation of monomeric PPARγ with rosiglitazone (%),[5],26%
